Literature values as cited in patent publication US8951728B2, “Template directed split and mix synthesis of small molecule libraries” (ChemGene Holding ApS, priority 2004, dated 2015).
pKd: −log10 of the molar value.

Biological target: alphaV/beta3 integrin receptor (Homo sapiens, UniProt P05106+P06756)
Sequence (P06756 31-889 limits assumed): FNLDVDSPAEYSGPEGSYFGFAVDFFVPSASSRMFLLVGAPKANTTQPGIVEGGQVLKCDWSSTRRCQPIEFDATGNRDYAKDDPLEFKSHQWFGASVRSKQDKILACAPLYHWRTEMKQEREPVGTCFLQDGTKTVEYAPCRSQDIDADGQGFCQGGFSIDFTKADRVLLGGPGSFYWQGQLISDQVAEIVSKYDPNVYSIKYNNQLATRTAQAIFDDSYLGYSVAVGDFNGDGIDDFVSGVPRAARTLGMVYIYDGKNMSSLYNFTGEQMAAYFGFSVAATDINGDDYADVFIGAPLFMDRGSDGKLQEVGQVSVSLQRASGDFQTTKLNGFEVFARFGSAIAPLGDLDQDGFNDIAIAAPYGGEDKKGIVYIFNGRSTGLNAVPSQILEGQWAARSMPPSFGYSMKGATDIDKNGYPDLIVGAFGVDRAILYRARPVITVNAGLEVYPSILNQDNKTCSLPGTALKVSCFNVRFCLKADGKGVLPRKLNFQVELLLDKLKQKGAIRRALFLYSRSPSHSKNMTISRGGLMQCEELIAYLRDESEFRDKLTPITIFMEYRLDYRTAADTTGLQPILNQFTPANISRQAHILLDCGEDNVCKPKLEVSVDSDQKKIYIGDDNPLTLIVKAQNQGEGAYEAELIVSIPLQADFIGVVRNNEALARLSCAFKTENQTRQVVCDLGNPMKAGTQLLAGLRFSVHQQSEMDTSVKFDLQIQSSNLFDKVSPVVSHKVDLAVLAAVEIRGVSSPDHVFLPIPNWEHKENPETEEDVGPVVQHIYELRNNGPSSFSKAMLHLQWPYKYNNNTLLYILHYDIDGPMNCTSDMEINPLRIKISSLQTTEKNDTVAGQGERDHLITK
Sequence (P06756 891-1048 limits assumed): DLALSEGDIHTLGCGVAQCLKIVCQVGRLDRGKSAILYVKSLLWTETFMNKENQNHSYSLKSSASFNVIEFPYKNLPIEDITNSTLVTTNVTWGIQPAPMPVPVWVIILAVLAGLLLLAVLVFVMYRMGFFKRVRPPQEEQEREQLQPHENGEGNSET
Sequence (P05106 27-788): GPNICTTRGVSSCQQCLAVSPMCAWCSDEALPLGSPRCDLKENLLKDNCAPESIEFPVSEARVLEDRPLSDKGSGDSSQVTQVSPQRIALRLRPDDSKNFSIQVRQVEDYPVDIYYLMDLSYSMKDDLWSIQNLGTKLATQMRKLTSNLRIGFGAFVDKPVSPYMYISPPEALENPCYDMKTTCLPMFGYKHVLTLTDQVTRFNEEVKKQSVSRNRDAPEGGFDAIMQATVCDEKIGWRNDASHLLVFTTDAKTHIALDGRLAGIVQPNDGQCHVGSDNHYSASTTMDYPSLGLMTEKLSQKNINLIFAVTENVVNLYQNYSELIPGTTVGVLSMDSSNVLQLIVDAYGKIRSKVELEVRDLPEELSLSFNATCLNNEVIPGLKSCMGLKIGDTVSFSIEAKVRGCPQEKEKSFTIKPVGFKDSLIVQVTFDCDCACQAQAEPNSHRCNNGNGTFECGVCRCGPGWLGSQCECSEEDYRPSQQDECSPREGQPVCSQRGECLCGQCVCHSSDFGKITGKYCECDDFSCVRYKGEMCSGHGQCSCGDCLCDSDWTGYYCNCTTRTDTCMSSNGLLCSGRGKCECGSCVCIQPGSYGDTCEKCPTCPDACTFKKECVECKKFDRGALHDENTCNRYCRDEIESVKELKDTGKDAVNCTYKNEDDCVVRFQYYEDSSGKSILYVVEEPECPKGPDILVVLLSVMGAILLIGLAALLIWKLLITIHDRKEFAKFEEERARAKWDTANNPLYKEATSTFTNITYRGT

Structure (SMILES): O=C(O)CC(NC(=O)CNC(=O)CCCc1ccc2c(n1)NCCC2)C(=O)O (centres unmarked) [Feuston 5]
- affinity compared to the RGD-tripeptide: ten-fold increased affinity
- pKd (Feuston et al., J Med. Chem. 2002): 6.95
